The results in this text go back to US4250255A, “Assay method for isoenzyme activity” (Eastman Kodak Company, priority 1977, dated 1981).

The subject of one test is LD1 and LD5. The test is described as follows: Screening of amphiphiles for ability to discriminate between LD1 and LD5. Particulars: range of amphiphile concentrations; relative activity vs buffer.
In test [1] the target is T1, LD1 (Sus scrofa, UniProt P00336). The test is described as follows: Effect of cationic amphiphiles on the activity of LDH isoenzymes (Table 1). Format: biochemical. Conditions: 30 mM sodium phosphate buffer pH 7.4, 25° C.; for IC50: read-out: Amphiphile conc. Req'd for 50% Inactivation of Specified Isoenzyme (LD1). Here is the method:
(§1) The assay for LDH activity in both the absence and presence of surfactant was conducted as follows. […] The resulting solution contains approximately 5 units/ml. […] To the equilibrated solution […]. of the enzyme solution was added, and the cuvette was rapidly shaken while covering the top of the cuvette with a small piece of Parafilm® and placed back into the spectrophotometer.
(§2) Amphiphile solutions were prepared by weighing out a given amount of amphiphile, e.g., 100 mg, and preparing a stock solution in 30 mM sodium phosphate buffer in 100 ml. volumetric flask. Solutions of lower amphiphile concentration were prepared by making the appropriate dilutions from the stock solution.
A number of cationic amphiphiles were investigated for specific inactivation of LD1 in the presence of LD5 and these compounds are listed in Table 1.
Target sequence in this assay (P00336 whole entry): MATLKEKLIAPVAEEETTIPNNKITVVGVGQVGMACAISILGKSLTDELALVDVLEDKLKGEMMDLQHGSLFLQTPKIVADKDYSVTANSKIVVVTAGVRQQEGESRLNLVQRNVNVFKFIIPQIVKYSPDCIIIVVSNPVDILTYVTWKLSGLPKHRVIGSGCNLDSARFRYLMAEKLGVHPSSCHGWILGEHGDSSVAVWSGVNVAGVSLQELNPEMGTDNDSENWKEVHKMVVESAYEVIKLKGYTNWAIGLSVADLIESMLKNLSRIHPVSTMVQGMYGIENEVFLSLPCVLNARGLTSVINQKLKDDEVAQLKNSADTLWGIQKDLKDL

Test [2] has as its target T1, LD1. The test is described as follows: LDH activity assay with amphiphile, LDH isoenzymes. In kind it is biochemical, porcine. Also on record: porcine LDH, LD1, LD2, LD3, LD4 and LD5 in the form of ammonium sulfate suspensions. On the procedure: (§3) 3. Beef heart LDH (Sigma Chemical Co., Type III), rabbit muscle LDH (Sigma Chemical Co., Type V) and porcine LDH, LD1, LD2, LD3, LD4 and LD5 in the form of ammonium sulfate suspensions were used for these examples.
as §1, §2
Target sequence in this assay (P00336 2-334): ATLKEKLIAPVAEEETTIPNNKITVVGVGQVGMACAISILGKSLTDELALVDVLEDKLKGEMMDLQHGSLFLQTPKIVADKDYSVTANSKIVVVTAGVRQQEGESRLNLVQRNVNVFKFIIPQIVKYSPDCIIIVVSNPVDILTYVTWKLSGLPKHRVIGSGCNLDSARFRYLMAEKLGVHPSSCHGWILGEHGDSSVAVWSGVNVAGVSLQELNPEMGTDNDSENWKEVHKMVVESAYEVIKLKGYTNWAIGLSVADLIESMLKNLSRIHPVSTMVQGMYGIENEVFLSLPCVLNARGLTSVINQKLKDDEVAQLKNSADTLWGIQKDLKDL

The target of the next test is LD5 (Sus scrofa, UniProt P00339). The test is described as follows: LDH activity assay with amphiphile, LDH isoenzymes. Also on record: LD5 from two different species, i.e., rabbit muscle and hog muscle; from tissue; host or cells: hog muscle. Format: biochemical, porcine. On the procedure:
as §3, §1, §2

The target of the next test is T2, LD4 (Sus scrofa, UniProt P00336+P00339).
T2 construct: porcine LDH, LD1, LD2, LD3, LD4 and LD5 in the form of ammonium sulfate suspensions
In words: LDH activity assay with amphiphile, LDH isoenzymes. In kind it is biochemical, porcine. On the procedure:
as §3, §1, §2

The next test deals with T3, LD2 (Sus scrofa, UniProt P00336+P00339).
T3 construct: porcine LDH, LD1, LD2, LD3, LD4 and LD5 in the form of ammonium sulfate suspensions
The test is described as follows: LDH activity assay with amphiphile, LDH isoenzymes. In kind it is biochemical, porcine. On the procedure: as §3, §1, §2

The next test addresses T4, LD3 (Sus scrofa, UniProt P00336+P00339).
T4 construct: porcine LDH, LD1, LD2, LD3, LD4 and LD5 in the form of ammonium sulfate suspensions
The test is described as follows: LDH activity assay with amphiphile, LDH isoenzymes. In kind it is biochemical, porcine. Here is the method:
as §3, §1, §2

The target of test [3] is T5, LDH isoenzymes (LD5 in the presence of LD1) (Oryctolagus cuniculus, UniProt P13491).
T5 construct: LD1 (LDHB tetramer) only as comparison
In words: Anionic amphiphiles tested for specific interaction with LDH isoenzymes (Table 2). Format: biochemical. Here is the method:
as §1, §2
A number of anionic amphiphiles were investigated for specific inactivation of LD5 in the presence of LD1 and these compounds are listed in Table 2.

Test [4] deals with LD1. The test is described as follows: LDH activity assay with amphiphile, LDH isoenzymes. Particulars: FIG. 12. Format: biochemical, porcine. On the procedure:
as §3, §1, §2

Counter-ions that a name gives are not always drawn. Like-named read-outs stand apart in the source and are kept apart here.

Protocol for LD1 and LD5: A series of solutions was prepared covering a range of concentrations for each amphiphile to be tested. The activities of both LD1 and LD5 were determined in the presence of the various concentrations of each amphiphile and compared with enzyme activities in buffer (relative activity).
Enzyme activity in the presence and absence of amphiphile was measured by the following procedure: Stock solutions of NADH (4 mM) and pyruvate (40 mM) were prepared daily in 30 mM sodium phosphate buffer, pH 7.4. Enzyme solutions were prepared daily by withdrawing 5 μl of the stock enzyme solutions with a Hamilton syringe and diluting to 5 ml with 30 mM sodium phosphate buffer. (The resulting solution contains approximately 5 U of enzyme/ml.) The enzyme assay was run by pipetting 2.7 ml of buffer or buffer surfactant solution into a 10 mm path length quartz cuvette, and 100 μl each of NADH and pyruvate stock solutions were added. […] Enzyme solution was added with good mixing; the absorbance decrease at 340 nm was measured as a function of time. The rate of the reaction was determined by measuring the slope of the initial absorbance decrease, i.e., within the first 50 seconds of the reaction.

Turning to `CCCCCCCCCCCCCCCCCCNC(=O)CC(C(=O)O)S(=O)(=O)O` (centres unmarked) [Disodium N-octadecylsulfosuccinamate], the “Effectiveness (LDH isoenzyme inhibition specificity, LD1 vs LD5)” value with LD1 and LD5 was “++”.
As to `CCCCCCCCCCCCN` [Dodecylamine . HCl], on LD1 [1], the IC50 is 13 mM. Besides, the “Effectiveness (LDH isoenzyme inhibition specificity, LD1 vs LD5)” value in the test with LD1 and LD5 is listed as “++”.
With `CCCCCCCCCCCC[N+](C)(C)C.[Br-]` [Dodecyltrimethylammonium bromide], on LD1 [1], the IC50 is 10 mM. Besides, the “Effectiveness (LDH isoenzyme inhibition specificity, LD1 vs LD5)” value in the test on LD1 and LD5 is reported as “-”.
As to `CC[n+]1ccccc1.[Br-]` [N-Ethylpyridinium bromide], the “Amphiphile conc. Req'd for 50% Inactivation of Specified Isoenzyme (LD1)” value at LD1 [1] was “no effect”.
Turning to `CCCCCCCCCCCCCCCC(=O)NCCC[N+](C)(C)CCO.[Cl-]` [N-β-hydroxyethyl-N,N-dimethyl-N-3-palmitamidopropylammonium chloride], the “effect on LD1 activity” value at LD1 [2] (FIG. 11) is listed as “inactivated mostly”. For the same compound, the “retention of LD5 activity” value on LD5 (FIG. 11) was 90%. Further, at LD4 (FIG. 11), the “retention of LD4 activity” value is given as ~ 60%. The “effect on LD2 activity” value on LD2 (FIG. 11) is reported as “inactivated mostly”. In addition, the “effect on LD3 activity” value at LD3 (FIG. 11) was “inactivated mostly”. In the test with LD1 and LD5, the “Effectiveness (LDH isoenzyme inhibition specificity, LD1 vs LD5)” value is “++”.
For the compound `CCCCCCCCC[N+](C)(C)C` [Nonatrimethylammonium bromide], the IC50 at LD1 [1] was determined as 0.35 mM. Besides, in the test on LD1 and LD5, the “Effectiveness (LDH isoenzyme inhibition specificity, LD1 vs LD5)” value is “-”.
In the case of `CCCCCCCCCCCCOS(=O)(=O)[O-].[Na+]` [SDS, sodium dodecylsulfate], the remaining activity at 1500 µM on LD1 [2] (pH 7.4, read-out: LD1 activity remaining) was 95%; on LD2 (pH 7.4, read-out: LD2 activity remaining), 65%; on LD3 (pH 7.4, read-out: LD3 activity remaining), 50%. On LD1 [2] (pH 7.4, read-out: LD1 activity, % of buffer control), the remaining activity at 3500 µM was found to be 78%. Besides, at LD5 (1.5 mM SDS, FIG. 9), the LD5 activity entry is reported as “nil”. On LD4 (1.5 mM SDS, FIG. 9), the LD4 activity entry is “nil”. The activity at 3500 µM on LD2 (pH 7.4, read-out: LD2 activity) is 0%. For the same compound, the “Interaction (specific inactivation of LD5 in the presence of LD1)” value (shortened to “Interaction”) is reported as “useful positive results” in test [3] and “specific” in test [3] (listed as sodium dodecylsulfate). In addition, the “Effectiveness (LDH isoenzyme inhibition specificity, LD1 vs LD5)” value in the test on LD1 and LD5 is “++”.
Consider `CCCCCCCC/C=C\CCCCCCCC(=O)N(C)CCS(=O)(=O)O` [Sodium N-methyl-N-oleoyl taurate], for which the “Effectiveness (LDH isoenzyme inhibition specificity, LD1 vs LD5)” value with LD1 and LD5 was 0.
Same read-out and setting: the figure for `CCCCOS(=O)(=O)[O-].[Na+]` [Sodium butyl sulfate] is 0; for `C[C@H](CCC(=O)O)[C@H]1CC[C@H]2[C@@H]3C(=O)C[C@@H]4CC(=O)CC[C@]4(C)[C@H]3CC(=O)[C@]12C` [Sodium dehydrocholate] it is 0.
Same read-out and setting: under `CCCCCCCCCCCC(=O)[O-].[Na+]` [Sodium dodecanoate] stands 0; under `CCCCCCCCOS(=O)(=O)[O-].[Na+]` [Sodium octyl sulfate], “+”; under `CCCCCCCCCCCCCCCCCC(=O)[O-].[Na+]` [Sodium stearate], 0.
For `CCCCCCCCCCCCCCOS(=O)(=O)[O-].[Na+]` [Sodium tetradecylsulfate], the “Effectiveness (LDH isoenzyme inhibition specificity, LD1 vs LD5)” value with LD1 and LD5 is “++”.
For the compound `CCCCCCCC[N+](CCC)(CCCCCCCC)CCCCCCCC.[Br-]` [Trioctylpropylammonium bromide], the IC50 at LD1 [1] turned out to be 1.6 mM. Further, the “Effectiveness (LDH isoenzyme inhibition specificity, LD1 vs LD5)” value in the test with LD1 and LD5 is reported as 0.
In the case of `C[C@H](CCC(=O)O)[C@H]1CC[C@H]2[C@@H]3C(=O)C[C@@H]4CC(=O)CC[C@]4(C)[C@H]3CC(=O)[C@]12C` [dehydrocholic acid], the “Interaction” value in test [3] was “no effect”.
Take `CCCCCCCCCCCC(=O)O` [lauric acid]: in test [3], the “Interaction” value is “no effect”.
Take `CCCCCCCCCCCCCCCCCC(=O)[O-].[Li+]` [lithium stearate]: the “Interaction” value in test [3] is listed as “no effect”.
With Heparin, the “inactivation of LD1 compared with LD5” value in the test on LD1 [4] is recorded as “LD1 is more inactivated than LD5”. Besides, the “Effectiveness (LDH isoenzyme inhibition specificity, LD1 vs LD5)” value in the test on LD1 and LD5 was “+”.
Take Sodium isopropylnaphthalene sulfonate: the “Effectiveness (LDH isoenzyme inhibition specificity, LD1 vs LD5)” value with LD1 and LD5 is on record as “+”.
On the same count and under the same terms, under Sodium n-decyldiphenylether disulfonate stands “++”; under “octylphenolpoly(1-oxapropene)oxaethane carboxylic acid sodium salt”, 0.
